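Here, GI50 denotes the concentration required for 50% inhibition of growth. The concentration for full growth arrest is given as TGI.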
Key:
Test in all cases: NCI anticancer screen, dose series, 384-well format
A549 NSCLC = tested on: A549 NSCLC
NCI-H23 lung = tested on: NCI-H23 lung
MOLT-4 leukemia = tested on: MOLT-4 leukemia
HCT-15 colon = tested on: HCT-15 colon
OVCAR-8 ovarian = tested on: OVCAR-8 ovarian
CCRF-CEM leukemia = tested on: CCRF-CEM leukemia
MCF7 breast = tested on: MCF7 breast
HOP-62 NSCLC = tested on: HOP-62 NSCLC
OVCAR-3 ovarian = tested on: OVCAR-3 ovarian
COLO 205 colon = tested on: COLO 205 colon
SF-268 CNS = tested on: SF-268 CNS
RXF 393 renal = tested on: RXF 393 renal
OVCAR-5 ovarian = tested on: OVCAR-5 ovarian
DU-145 prostate = tested on: DU-145 prostate
NCI-H322M lung = tested on: NCI-H322M lung
SNB-75 CNS = tested on: SNB-75 CNS
A498 renal = tested on: A498 renal
ACHN renal = tested on: ACHN renal
T-47D breast = tested on: T-47D breast
RPMI-8226 leukemia = tested on: RPMI-8226 leukemia
UACC-257 melanoma = tested on: UACC-257 melanoma
UACC-62 melanoma = tested on: UACC-62 melanoma
SK-MEL-5 melanoma = tested on: SK-MEL-5 melanoma
CAKI-1 renal = tested on: CAKI-1 renal
HS 578T breast = tested on: HS 578T breast
NCI-H522 lung = tested on: NCI-H522 lung
UO-31 renal = tested on: UO-31 renal
HCC-2998 colon = tested on: HCC-2998 colon
SNB-19 CNS = tested on: SNB-19 CNS

**Q.** How did the GI50 (A549 NSCLC) turn out when COc1cc2ncnc(Nc3ccc(F)c(Cl)c3)c2cc1NC(=O)/C=C/CN1CCCCC1 was run?
**A.** 3310 nM

**Q.** And the TGI (A549 NSCLC)?
**A.** 4860 nM

**Q.** And the GI50 (NCI-H23 lung)?
**A.** 3170 nM

**Q.** What about the TGI (NCI-H23 lung) of the same compound?
**A.** 5330 nM

**Q.** What about the GI50 (MOLT-4 leukemia) of the same compound?
**A.** 803 nM

**Q.** What about the TGI (MOLT-4 leukemia) of the same compound?
**A.** 2190 nM

**Q.** And the GI50 (HCT-15 colon)?
**A.** 1180 nM

**Q.** And the TGI (HCT-15 colon)?
**A.** 4170 nM

**Q.** What about the GI50 (OVCAR-8 ovarian) of the same compound?
**A.** 3430 nM

**Q.** And the TGI (OVCAR-8 ovarian)?
**A.** 4920 nM

**Q.** What about the GI50 (CCRF-CEM leukemia) of the same compound?
**A.** 1920 nM

**Q.** What about the TGI (CCRF-CEM leukemia) of the same compound?
**A.** 3370 nM

**Q.** And the GI50 (MCF7 breast)?
**A.** 3170 nM

**Q.** What about the TGI (MCF7 breast) of the same compound?
**A.** 4960 nM

**Q.** And the GI50 (HOP-62 NSCLC)?
**A.** 4210 nM

**Q.** And the TGI (HOP-62 NSCLC)?
**A.** 5840 nM

**Q.** And the GI50 (OVCAR-3 ovarian)?
**A.** 586 nM

**Q.** And the TGI (OVCAR-3 ovarian)?
**A.** 2040 nM

**Q.** And the GI50 (COLO 205 colon)?
**A.** 4040 nM

**Q.** And the TGI (COLO 205 colon)?
**A.** 5480 nM

**Q.** And the GI50 (SF-268 CNS)?
**A.** 1680 nM

**Q.** What about the TGI (SF-268 CNS) of the same compound?
**A.** 4330 nM

**Q.** And the GI50 (RXF 393 renal)?
**A.** 1010 nM

**Q.** What about the TGI (RXF 393 renal) of the same compound?
**A.** 3050 nM

**Q.** And the GI50 (OVCAR-5 ovarian)?
**A.** 1660 nM

**Q.** What about the TGI (OVCAR-5 ovarian) of the same compound?
**A.** 5040 nM

**Q.** What about the GI50 (DU-145 prostate) of the same compound?
**A.** 395 nM

**Q.** And the TGI (DU-145 prostate)?
**A.** 2140 nM

**Q.** And the GI50 (NCI-H322M lung)?
**A.** < 22.1 nM

**Q.** What about the TGI (NCI-H322M lung) of the same compound?
**A.** 150 nM

**Q.** And the GI50 (SNB-75 CNS)?
**A.** 775 nM

**Q.** And the TGI (SNB-75 CNS)?
**A.** 3010 nM

**Q.** And the GI50 (A498 renal)?
**A.** 471 nM

**Q.** And the TGI (A498 renal)?
**A.** 2190 nM

**Q.** What about the TGI (ACHN renal) of the same compound?
**A.** 1870 nM

**Q.** What about the TGI (T-47D breast) of the same compound?
**A.** 3920 nM

**Q.** What about the GI50 (RPMI-8226 leukemia) of the same compound?
**A.** 1510 nM

**Q.** What about the TGI (RPMI-8226 leukemia) of the same compound?
**A.** 2850 nM

**Q.** What about the GI50 (UACC-257 melanoma) of the same compound?
**A.** 1630 nM

**Q.** And the TGI (UACC-257 melanoma)?
**A.** 3080 nM

**Q.** And the GI50 (UACC-62 melanoma)?
**A.** 1590 nM

**Q.** What about the TGI (UACC-62 melanoma) of the same compound?
**A.** 2960 nM

**Q.** And the GI50 (SK-MEL-5 melanoma)?
**A.** 1600 nM

**Q.** What about the TGI (SK-MEL-5 melanoma) of the same compound?
**A.** 3670 nM

**Q.** What about the GI50 (CAKI-1 renal) of the same compound?
**A.** 618 nM

**Q.** And the TGI (CAKI-1 renal)?
**A.** 2140 nM

**Q.** And the GI50 (HS 578T breast)?
**A.** 951 nM

**Q.** What about the TGI (HS 578T breast) of the same compound?
**A.** 2810 nM

**Q.** What about the GI50 (NCI-H522 lung) of the same compound?
**A.** < 45.2 nM

**Q.** What about the TGI (NCI-H522 lung) of the same compound?
**A.** 946 nM

**Q.** And the GI50 (UO-31 renal)?
**A.** 639 nM

**Q.** What about the TGI (UO-31 renal) of the same compound?
**A.** 2200 nM

**Q.** What about the GI50 (HCC-2998 colon) of the same compound?
**A.** 5290 nM

**Q.** What about the GI50 (SNB-19 CNS) of the same compound?
**A.** 2090 nM

**Q.** What about the TGI (SNB-19 CNS) of the same compound?
**A.** 6560 nM

Source: PubChem BioAssay (NCI)
